According to article PMC5556071, “ATR inhibition facilitates targeting of leukemia dependence on convergent nucleotide biosynthetic pathways” (Nature Communications, 2017):
Read-outs that look alike come from different tables or passages of the source.

Assays:
Type in all cases: cell-based, human
CEM cells [1] = experiment: Proliferation assay (CellTiter-Glo, 72 h)
Experimental: Cells were plated in 384-well plates (1000 cells/well for suspension cell lines and 500 cells/well for adherent cell lines in 30 µl volume). Drugs were serially diluted to the desired concentrations and an equivalent volume of DMSO was added to vehicle control. Ten microliter of the 4× diluted drugs were added to each well. Following 72 h incubation, ATP content was measured using CellTiter-Glo reagent according to manufacturer’s instructions (Promega, CellTiter-Glo Luminescent Cell Viability Assay), and analyzed by SpectraMax luminometer (Molecular Devices). IC50 values, concentrations required to inhibit proliferation by 50% compared to DMSO treated cells, were calculated using Prism 6.0 h (Graphpad Software).

CEM cells [2] = experiment: Cell cycle analysis of asynchronous cells by flow cytometry (S-phase population, S-phase arrest); conditions: CEM, 24 h
Experimental: Cell cycle histograms. Cells were plated at a density of 0.5 x 10^6 cells/mL in respective media or drug treated media. Following 24 h incubation, cells were harvested and washed twice with PBS twice before staining with 0.5 ml of propidium iodide (Calbiochem, #P3566, 1 µg/mL) solution containing Ribonuclease A and 0.3% Triton-X 100. The samples were protected from light before acquisition by flow cytometry.
Cell cycle kinetics and cell cycle progression by intracellular detection of DNA-incorporated 5-ethynyl-2-deoxyuridine (EdU). CEM T-ALL cells were plated at a density of 0.5 x 10^6 cells/mL. Cells were pulsed with 10 µM EdU (Invitrogen) for 1 h, washed twice with PBS, and released in fresh media containing 5 µM deoxyribonucleosides, with and without drugs. Cells were collected at different time points following release in fresh media, and then fixed with 4% paraformaldehyde and permeabilized using saponin perm/wash reagent (Invitrogen). Cells were then stained with azide-Alexa Fluor 647 by Click reaction according to manufacturer’s protocol (Invitrogen; Click-iT EdU Flow cytometry kit, #C10634). […]

Jurkat cells = experiment: Cell cycle histograms (propidium iodide flow cytometry); conditions: dCKi 1 µM, 24 h
Experimental: Cell cycle histograms. Cells were plated at a density of 0.5 x 10^6 cells/mL in respective media or drug treated
media. Following 24 h incubation, cells were harvested and washed twice with PBS twice before staining with
0.5 ml of propidium iodide (Calbiochem, #P3566, 1 µg/mL) solution containing Ribonuclease A and 0.3%
Triton-X 100. The samples were protected from light before acquisition by flow cytometry. […]

[3] = Suppl. Fig. 5e, BCX-1777 100 nM

| SMILES | fold higher concentration than 3-AP required to induce S-phase arrest (CEM cells [2]) | IC50 (CEM cells [1]) [µM] | other results |
| --- | --- | --- | --- |
| Cc1cn([C@H]2C[C@H](O)[C@@H](CO)O2)c(=O)[nH]c1=O [dT, thymidine] | 60–100 fold |  | IC50 (CEM cells [1]; Homo sapiens, CCRF-CEM): 159 µM |
| O=c1[nH]cnc2c([C@@H]3N[C@H](CO)[C@@H](O)[C@H]3O)c[nH]c12 [BCX-1777, forodesine] |  |  | cells in G2/M (Jurkat cells; [3]): 1.4%; cells in S phase (Jurkat cells; [3]): 40% |
| NC(=O)NO [HU, hydroxyurea] | 60–100 fold | 74.5 |  |
| OC[C@H]1O[C@@H](n2cnc3c2NC=NC[C@H]3O)C[C@@H]1O [dCF, Pentostatin] |  |  | cells in G2/M (Jurkat cells; Suppl. Fig. 4e, dCF 10 µM): 6%; cells in S phase (Jurkat cells; Suppl. Fig. 4e, dCF 10 µM): 11% |
| Cc1occc(=O)c1[O-].Cc1occc(=O)c1[O-].Cc1occc(=O)c1[O-].[Ga+3] [GaM, gallium maltolate] | 60–100 fold | 49.8 |  |
